Assay [1] addresses T1, Ribosyldihydronicotinamide dehydrogenase [quinone] (Homo sapiens, UniProt P16083).
T1 sequence (P16083 whole entry): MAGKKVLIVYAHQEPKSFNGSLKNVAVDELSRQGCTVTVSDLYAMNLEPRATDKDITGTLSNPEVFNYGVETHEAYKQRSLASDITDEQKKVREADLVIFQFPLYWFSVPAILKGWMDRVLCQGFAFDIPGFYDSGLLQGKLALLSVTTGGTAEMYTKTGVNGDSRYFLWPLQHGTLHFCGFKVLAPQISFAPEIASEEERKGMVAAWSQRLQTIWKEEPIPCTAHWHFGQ

Assay [2] deals with Casein kinase I isoform gamma-1 (Homo sapiens, UniProt Q9HCP0).
Assay [3] concerns the target T2, Aurora kinase A (Homo sapiens, UniProt O14965).
T2 sequence (O14965 whole entry): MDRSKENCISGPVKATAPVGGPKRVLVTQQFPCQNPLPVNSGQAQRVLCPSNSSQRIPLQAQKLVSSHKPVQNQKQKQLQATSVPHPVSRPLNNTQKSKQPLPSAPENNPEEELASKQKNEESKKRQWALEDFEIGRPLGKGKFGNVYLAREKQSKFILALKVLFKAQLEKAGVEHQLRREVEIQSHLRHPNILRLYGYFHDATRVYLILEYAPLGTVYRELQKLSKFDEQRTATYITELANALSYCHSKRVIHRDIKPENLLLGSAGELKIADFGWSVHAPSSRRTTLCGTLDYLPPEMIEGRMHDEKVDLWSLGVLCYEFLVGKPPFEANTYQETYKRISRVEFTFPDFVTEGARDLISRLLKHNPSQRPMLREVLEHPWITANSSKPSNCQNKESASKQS

Assay [4] deals with Protein kinase C delta type (Homo sapiens, UniProt Q05655).
Assay [5] concerns the target Calcium/calmodulin-dependent protein kinase type II subunit gamma (Homo sapiens, UniProt Q13555).
Assay [6] has as its target S-adenosylmethionine synthase isoform type-2 (Homo sapiens, UniProt P31153).
For assay [7], the target named is Glycogen synthase kinase-3 alpha (Homo sapiens, UniProt P49840).
Assay [8] deals with Cyclin-dependent kinase 2 (Homo sapiens, UniProt P24941).
Assay [9] has as its target Putative heat shock protein HSP 90-beta 2 (Homo sapiens, UniProt Q58FF8).
For assay [10], the target named is T3, Cytochrome c1, heme protein, mitochondrial (Homo sapiens, UniProt P08574).
T3 sequence (P08574 whole entry): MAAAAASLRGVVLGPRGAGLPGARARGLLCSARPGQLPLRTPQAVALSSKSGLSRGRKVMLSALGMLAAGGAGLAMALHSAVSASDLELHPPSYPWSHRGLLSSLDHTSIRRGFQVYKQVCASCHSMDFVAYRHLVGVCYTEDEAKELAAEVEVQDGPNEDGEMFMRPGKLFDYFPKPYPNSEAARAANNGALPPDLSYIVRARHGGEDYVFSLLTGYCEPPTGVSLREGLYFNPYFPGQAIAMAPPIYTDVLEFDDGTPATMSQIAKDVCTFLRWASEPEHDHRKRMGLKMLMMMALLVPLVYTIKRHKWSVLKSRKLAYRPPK

Assay [11] has as its target T4, ATP-dependent RNA helicase DDX42 (Homo sapiens, UniProt Q86XP3).
T4 sequence (Q86XP3 whole entry): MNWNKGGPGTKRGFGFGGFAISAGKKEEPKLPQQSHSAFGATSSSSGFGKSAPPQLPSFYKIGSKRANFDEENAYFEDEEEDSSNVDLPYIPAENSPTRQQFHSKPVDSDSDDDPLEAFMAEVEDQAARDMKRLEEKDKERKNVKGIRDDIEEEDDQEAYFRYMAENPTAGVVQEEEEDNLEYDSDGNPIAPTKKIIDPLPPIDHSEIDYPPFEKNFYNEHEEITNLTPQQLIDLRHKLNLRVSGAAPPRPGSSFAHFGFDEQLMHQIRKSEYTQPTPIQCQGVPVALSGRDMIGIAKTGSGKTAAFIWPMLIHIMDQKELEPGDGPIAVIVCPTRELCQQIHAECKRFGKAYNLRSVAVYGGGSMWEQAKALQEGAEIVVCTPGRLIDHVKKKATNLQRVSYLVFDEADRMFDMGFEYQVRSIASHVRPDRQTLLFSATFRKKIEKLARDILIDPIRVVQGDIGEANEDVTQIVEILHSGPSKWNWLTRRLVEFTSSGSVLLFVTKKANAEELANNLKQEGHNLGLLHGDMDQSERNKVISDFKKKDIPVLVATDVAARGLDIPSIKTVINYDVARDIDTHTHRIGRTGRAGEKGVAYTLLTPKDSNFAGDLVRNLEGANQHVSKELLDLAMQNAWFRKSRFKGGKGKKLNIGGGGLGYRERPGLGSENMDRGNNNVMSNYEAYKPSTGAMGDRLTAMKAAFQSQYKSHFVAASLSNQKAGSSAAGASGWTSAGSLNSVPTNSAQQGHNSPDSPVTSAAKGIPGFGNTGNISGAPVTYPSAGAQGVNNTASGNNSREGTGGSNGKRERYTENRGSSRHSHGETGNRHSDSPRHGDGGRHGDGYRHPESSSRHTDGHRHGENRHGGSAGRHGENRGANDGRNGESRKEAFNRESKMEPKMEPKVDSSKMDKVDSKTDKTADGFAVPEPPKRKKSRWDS

In assay [12] the target is Mitogen-activated protein kinase 9 (Homo sapiens, UniProt P45984).
Assay [13] deals with T5, Delta(24)-sterol reductase (Homo sapiens, UniProt Q15392).
T5 sequence (Q15392 whole entry): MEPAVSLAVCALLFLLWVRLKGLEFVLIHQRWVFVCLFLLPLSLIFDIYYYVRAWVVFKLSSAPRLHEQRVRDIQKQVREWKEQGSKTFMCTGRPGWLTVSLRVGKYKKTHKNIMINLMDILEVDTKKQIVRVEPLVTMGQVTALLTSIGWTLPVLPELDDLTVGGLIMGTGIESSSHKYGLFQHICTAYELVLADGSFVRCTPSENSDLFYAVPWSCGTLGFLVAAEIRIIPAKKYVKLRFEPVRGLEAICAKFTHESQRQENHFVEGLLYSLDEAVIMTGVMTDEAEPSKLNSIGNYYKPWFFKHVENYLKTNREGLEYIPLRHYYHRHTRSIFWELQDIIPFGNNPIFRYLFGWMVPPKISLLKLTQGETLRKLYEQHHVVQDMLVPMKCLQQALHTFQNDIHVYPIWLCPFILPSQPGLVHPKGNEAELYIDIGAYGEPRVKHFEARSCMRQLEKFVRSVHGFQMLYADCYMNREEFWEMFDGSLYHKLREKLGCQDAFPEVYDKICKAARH

Active and inactive are the calls of the source. Rule as the data show it, for most assays here: actives have a measured Kd and inactives only a lower limit.
Also: in the data inactive means no Kd found up to 30 µM.

S-adenosylmethionine synthase isoform type-2, sequence (P31153 whole entry, canonical isoform): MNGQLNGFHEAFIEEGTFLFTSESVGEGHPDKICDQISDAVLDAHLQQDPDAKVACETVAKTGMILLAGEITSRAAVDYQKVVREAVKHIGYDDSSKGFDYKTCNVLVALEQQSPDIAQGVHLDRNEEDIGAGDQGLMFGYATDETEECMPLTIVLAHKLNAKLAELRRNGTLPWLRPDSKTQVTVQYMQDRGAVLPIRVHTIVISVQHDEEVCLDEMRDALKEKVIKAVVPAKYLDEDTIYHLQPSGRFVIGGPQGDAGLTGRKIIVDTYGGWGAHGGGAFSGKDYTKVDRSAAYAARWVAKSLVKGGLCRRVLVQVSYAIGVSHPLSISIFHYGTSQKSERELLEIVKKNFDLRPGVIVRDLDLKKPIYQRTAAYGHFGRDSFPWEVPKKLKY
Casein kinase I isoform gamma-1, sequence (Q9HCP0 whole entry, canonical isoform): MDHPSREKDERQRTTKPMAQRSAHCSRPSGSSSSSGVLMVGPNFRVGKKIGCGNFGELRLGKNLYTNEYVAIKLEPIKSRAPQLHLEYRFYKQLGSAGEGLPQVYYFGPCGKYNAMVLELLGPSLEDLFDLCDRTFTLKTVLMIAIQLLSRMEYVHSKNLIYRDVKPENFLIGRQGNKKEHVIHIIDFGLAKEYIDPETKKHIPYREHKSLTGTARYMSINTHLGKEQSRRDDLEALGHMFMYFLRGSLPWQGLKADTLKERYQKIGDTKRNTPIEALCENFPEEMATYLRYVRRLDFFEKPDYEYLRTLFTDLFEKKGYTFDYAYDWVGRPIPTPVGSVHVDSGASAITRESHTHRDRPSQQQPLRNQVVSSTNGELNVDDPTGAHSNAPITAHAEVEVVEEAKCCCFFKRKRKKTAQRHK
Protein kinase C delta type, sequence (Q05655 whole entry): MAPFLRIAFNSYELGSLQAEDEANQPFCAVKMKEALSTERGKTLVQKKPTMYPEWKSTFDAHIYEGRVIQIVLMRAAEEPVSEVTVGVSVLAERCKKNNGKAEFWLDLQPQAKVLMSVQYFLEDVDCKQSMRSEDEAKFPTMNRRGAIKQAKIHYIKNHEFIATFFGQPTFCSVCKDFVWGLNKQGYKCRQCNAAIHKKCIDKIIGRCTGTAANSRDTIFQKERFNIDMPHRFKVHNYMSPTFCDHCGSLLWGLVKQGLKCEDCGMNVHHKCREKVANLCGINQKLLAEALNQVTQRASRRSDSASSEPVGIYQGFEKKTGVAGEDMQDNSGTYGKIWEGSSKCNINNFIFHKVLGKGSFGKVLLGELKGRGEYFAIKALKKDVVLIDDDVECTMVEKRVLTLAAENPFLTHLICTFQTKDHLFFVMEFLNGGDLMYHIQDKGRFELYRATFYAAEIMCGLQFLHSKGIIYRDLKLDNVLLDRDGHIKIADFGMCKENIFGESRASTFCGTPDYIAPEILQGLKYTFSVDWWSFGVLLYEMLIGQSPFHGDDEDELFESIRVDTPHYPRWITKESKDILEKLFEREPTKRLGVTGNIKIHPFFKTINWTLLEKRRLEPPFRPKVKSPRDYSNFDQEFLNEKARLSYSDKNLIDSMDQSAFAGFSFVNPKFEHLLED
Putative heat shock protein HSP 90-beta 2, sequence (Q58FF8 whole entry): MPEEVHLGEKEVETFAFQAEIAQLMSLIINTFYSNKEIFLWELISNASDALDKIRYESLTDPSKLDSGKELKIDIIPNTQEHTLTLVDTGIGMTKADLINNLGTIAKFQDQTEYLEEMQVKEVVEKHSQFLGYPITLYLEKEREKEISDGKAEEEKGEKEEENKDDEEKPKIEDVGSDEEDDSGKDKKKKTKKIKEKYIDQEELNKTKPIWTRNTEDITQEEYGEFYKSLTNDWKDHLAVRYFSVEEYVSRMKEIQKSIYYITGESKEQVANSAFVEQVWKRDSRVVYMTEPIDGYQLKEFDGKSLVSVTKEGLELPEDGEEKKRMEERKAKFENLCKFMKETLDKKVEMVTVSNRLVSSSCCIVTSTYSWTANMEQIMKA
Calcium/calmodulin-dependent protein kinase type II subunit gamma, sequence (Q13555 whole entry, canonical isoform): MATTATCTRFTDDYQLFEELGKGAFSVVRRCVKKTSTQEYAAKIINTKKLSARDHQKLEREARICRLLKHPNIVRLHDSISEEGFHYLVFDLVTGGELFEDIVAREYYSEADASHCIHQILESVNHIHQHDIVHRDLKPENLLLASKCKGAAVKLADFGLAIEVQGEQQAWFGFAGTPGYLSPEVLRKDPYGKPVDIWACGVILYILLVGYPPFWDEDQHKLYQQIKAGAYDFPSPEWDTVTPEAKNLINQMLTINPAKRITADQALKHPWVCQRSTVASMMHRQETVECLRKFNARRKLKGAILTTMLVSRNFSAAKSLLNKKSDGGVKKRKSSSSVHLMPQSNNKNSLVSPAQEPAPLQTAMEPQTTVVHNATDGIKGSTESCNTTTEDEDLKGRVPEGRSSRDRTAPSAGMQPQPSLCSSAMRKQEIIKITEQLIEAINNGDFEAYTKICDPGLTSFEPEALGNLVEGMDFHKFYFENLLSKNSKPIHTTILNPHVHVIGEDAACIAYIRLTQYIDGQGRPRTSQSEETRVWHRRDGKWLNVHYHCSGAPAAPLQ
Glycogen synthase kinase-3 alpha, sequence (P49840 whole entry): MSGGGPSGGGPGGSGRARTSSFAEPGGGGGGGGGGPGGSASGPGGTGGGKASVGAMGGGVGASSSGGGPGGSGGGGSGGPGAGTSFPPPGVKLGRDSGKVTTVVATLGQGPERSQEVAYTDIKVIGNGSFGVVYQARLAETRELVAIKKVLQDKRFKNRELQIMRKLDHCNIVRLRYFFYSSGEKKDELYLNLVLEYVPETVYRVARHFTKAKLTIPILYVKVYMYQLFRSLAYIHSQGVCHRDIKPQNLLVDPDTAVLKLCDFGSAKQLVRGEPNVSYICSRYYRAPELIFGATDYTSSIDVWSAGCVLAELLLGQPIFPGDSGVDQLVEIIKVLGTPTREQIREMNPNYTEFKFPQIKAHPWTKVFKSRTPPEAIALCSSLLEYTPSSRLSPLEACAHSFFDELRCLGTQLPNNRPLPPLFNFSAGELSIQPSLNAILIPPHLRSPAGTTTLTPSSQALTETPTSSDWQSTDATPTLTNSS
Mitogen-activated protein kinase 9, sequence (P45984 whole entry): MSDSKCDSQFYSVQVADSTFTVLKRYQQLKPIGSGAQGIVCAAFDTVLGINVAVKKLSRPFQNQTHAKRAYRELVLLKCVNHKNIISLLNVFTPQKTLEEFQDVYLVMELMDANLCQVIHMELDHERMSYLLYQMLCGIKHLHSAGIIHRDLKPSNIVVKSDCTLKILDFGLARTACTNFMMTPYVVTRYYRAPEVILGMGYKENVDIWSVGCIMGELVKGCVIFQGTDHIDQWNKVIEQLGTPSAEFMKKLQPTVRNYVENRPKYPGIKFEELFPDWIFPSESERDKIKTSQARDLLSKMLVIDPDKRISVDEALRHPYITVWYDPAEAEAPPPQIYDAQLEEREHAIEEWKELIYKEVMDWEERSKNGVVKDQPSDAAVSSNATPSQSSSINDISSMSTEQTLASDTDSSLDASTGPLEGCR

As usually defined, the Kd is the free concentration of one partner at which half of the binding sites on the other are occupied at equilibrium, for simple one-to-one binding. Consider `Cn1cnc2c(F)c(Nc3ccc(Br)cc3F)c(C(=O)NOCCO)cc21` [BINIMETINIB], for which the Kd in [1] was 14.7 µM (active); in assay [2], > 30 µM (inactive); in assay [3], > 30 µM (inactive); in [4] it was > 30 µM (inactive); in assay [5] it was > 30 µM (inactive); in assay [6], > 30 µM (inactive). Moreover, the Kd in [7], in assay [8], in assay [9], in [10], in assay [11] and in [12] was > 30 µM (inactive) each time. The Kd in assay [13] was > 30 µM (inactive).
In the case of `CCn1c(C(=O)N(C2CC2)C2CC2)cc2c3c(ncn3C)c(Nc3cc(C)n(C)n3)nc21` [BMS-911543], the Kd in [1] is 5.86 µM (active); in assay [2], > 30 µM (inactive); in [3] it was > 30 µM (inactive); in [4], > 30 µM (inactive); in [5], > 30 µM (inactive); in [6], > 30 µM (inactive). For the same molecule, the Kd in assay [7], in [8], in [9], in [10], in assay [11] and in assay [12] was > 30 µM (inactive) each time. Also, the Kd in [13] was > 30 µM (inactive).
In the case of `COc1cc2ncnc(Oc3cccc(NC(=O)Nc4cc(C(C)(C)C(F)(F)F)on4)c3)c2cc1OC` [CEP-32496], the Kd in assay [1], in assay [2], in [3], in assay [4], in assay [5] and in assay [6] was > 30 µM (inactive) each time. For the same molecule, the Kd is > 30 µM (inactive) in [7]; > 30 µM (inactive) in assay [8]; > 30 µM (inactive) in assay [9]; > 30 µM (inactive) in assay [10]; > 30 µM (inactive) in assay [11]; 0.148 µM (active) in assay [12]. Also, in assay [13], the Kd is > 30 µM (inactive).
On to `Cc1cc(Nc2ncc(Cl)c(Nc3ccccc3S(=O)(=O)C(C)C)n2)c(OC(C)C)cc1C1CCNCC1` [CERITINIB], for which the Kd in [1], in [2], in [3], in assay [4], in assay [5] and in assay [6] was > 30 µM (inactive) each time. Also, the Kd in assay [7], in assay [8], in assay [9], in assay [10], in assay [11] and in assay [12] was > 30 µM (inactive) in each case. Moreover, the Kd in assay [13] was > 30 µM (inactive).
As for `COc1c(OCCCN2CCOCC2)ccc2c1N=C(NC(=O)c1cnc(N)nc1)N1CCN=C21` [COPANLISIB], the Kd in [1], in assay [2], in assay [3], in assay [4], in assay [5] and in assay [6] was > 30 µM (inactive) in each case. Moreover, the Kd in assay [7], in assay [8], in [9], in assay [10], in [11] and in assay [12] was > 30 µM (inactive) in each case. In addition, the Kd in assay [13] is > 30 µM (inactive).
On to `COCC(=O)NC/C=C/c1ccc2ncnc(Nc3ccc(Oc4ccc(C)nc4)c(C)c3)c2c1` [CP-724714], for which the Kd in assay [1], in assay [2], in assay [3], in assay [4], in [5] and in [6] was > 30 µM (inactive) each time. The Kd in [7], in assay [8], in assay [9], in assay [10], in assay [11] and in [12] was > 30 µM (inactive) each time. Also, the Kd in assay [13] is > 30 µM (inactive).
For `C#Cc1cccc(Nc2ncnc3cc(OC)c(OCCCCCCC(=O)NO)cc23)c1` [CUDC-101], the Kd in assay [1], in [2], in assay [3], in assay [4], in assay [5] and in assay [6] was > 30 µM (inactive) each time. For the same molecule, the Kd in assay [7], in assay [8], in [9], in assay [10], in assay [11] and in assay [12] was > 30 µM (inactive) in each case. In assay [13], the Kd is > 30 µM (inactive).
As for `O=C(Nc1nc2cccc(-c3ccc(CN4CCS(=O)(=O)CC4)cc3)n2n1)C1CC1` [FILGOTINIB], the Kd in [1], in assay [2], in assay [3], in [4], in assay [5] and in assay [6] was > 30 µM (inactive) throughout. Moreover, the Kd in [7], in [8], in [9], in [10], in assay [11] and in [12] was > 30 µM (inactive) each time. Besides, the Kd in [13] is > 30 µM (inactive).
